Like-named read-outs stand apart in the source and are kept apart here.
How the values were obtained:
[1] = target: T1, S. aureus (SaFtsZ) (Staphylococcus aureus, UniProt P0A031); assay: biochemical; assay type: binding
T1 construct: 6xHis (C); made in house; host or cells: E. coli BLR (DE3), pET-22b(+)
T1 sequence (P0A031 1-390): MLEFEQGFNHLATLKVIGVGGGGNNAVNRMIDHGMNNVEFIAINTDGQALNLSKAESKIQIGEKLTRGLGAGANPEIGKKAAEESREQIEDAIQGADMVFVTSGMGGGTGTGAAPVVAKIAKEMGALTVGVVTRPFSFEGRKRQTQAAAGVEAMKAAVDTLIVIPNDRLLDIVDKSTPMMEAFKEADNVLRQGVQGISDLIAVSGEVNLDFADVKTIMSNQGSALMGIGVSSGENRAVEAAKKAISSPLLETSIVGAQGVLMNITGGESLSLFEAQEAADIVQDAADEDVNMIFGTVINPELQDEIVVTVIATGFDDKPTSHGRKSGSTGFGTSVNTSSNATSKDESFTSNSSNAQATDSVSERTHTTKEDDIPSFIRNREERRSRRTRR
Procedure: (§1) Fluorescence anisotropy experiments were performed using an AVIV model ATF105 spectrofluorometer at 15, 25, or 37 °C. In these experiments, bandwidths were set to 4 nm in both the excitation and emission directions, with the excitation and emission wavelengths being set at 488 nm and 510 nm, respectively. BOFP (0.1 µM) was titrated with increasing concentrations (ranging from 0 to 12 µM) of FtsZ in 120 µL of buffer containing 50 mM Tris-HCl (pH 7.6) and 50 mM KCl. After each protein addition, the samples were equilibrated for 3 minutes, whereupon the fluorescence anisotropy was measured.
(§2) In this equation, r0 is the anisotropy of the protein-free compound, r∞ is the anisotropy of the compound in the presence of an infinite concentration of FtsZ, [C]tot is the total concentration of the compound, and [P]tot is the total concentration of protein with each addition. These analyses yielded the equilibrium dissociation constant (Kd) for each binding reaction.
(§3) The binding free energy (ΔG) at temperature T was derived from the corresponding Kd value determined at T using the following relationship:2 ΔG=−RTln(1/Kd)
(§4) The binding enthalpy (ΔH) and entropy (ΔS) were derived from linear fits of the ln(1/Kd) vs. 1/T plots shown in Figs. 3f and 5e using the following relationship:3 ln(1/Kd)=−ΔH/R(1/T)+ΔS/R
The impact of guanosine nucleotide and magnesium on the binding of BOFP to SaFtsZ was assessed at 37 °C in the same buffer described above. In these studies, the anisotropy of 0.1 µM BOFP alone or in the presence of 10 µM SaFtsZ was measured, with the latter also being measured in the presence of 0.1 mM GMPCPP (a non-hydrolyzable GTP analog), 10 mM MgCl2, or both.
In comparative control experiments, the anisotropy of 0.1 µM BODIPY FL-COOH or BOFP alone or in the presence of SaFtsZ (10 µM), SpyFtsZ (10 µM), KpFtsZ (2 µM), or PaFtsZ (2 µM) was measured at 37 °C in the same buffer described above.

[2] = target: T2, S. agalactiae (SagFtsZ) (Streptococcus agalactiae, UniProt Q8E183); assay: Fluorescence anisotropy binding of BOFP to SagFtsZ; details: for Kd: 50 mM Tris-HCl (pH 7.6), 50 mM KCl, 0.1 µM BOFP
T2 sequence (Q8E183 1-426): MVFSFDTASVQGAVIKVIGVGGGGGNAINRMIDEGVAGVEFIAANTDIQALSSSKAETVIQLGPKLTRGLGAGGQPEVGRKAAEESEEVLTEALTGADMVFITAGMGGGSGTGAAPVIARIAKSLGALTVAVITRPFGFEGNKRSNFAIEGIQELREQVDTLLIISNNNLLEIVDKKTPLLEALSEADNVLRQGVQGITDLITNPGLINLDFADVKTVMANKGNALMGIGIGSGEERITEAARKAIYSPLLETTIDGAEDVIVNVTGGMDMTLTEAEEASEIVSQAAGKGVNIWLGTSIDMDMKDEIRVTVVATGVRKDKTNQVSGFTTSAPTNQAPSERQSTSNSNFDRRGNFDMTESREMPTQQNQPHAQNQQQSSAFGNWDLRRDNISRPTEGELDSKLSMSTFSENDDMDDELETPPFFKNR
Procedure: as §1, §2, §3, §4

[3] = target: T3, S. pneumoniae (SpnFtsZ) (Streptococcus pneumoniae, UniProt A0A0H2ZNE0); assay: Fluorescence anisotropy binding of BOFP to SpnFtsZ; details: for Kd: 50 mM Tris-HCl (pH 7.6), 50 mM KCl, 0.1 µM BOFP
T3 sequence (A0A0H2ZNE0 1-419): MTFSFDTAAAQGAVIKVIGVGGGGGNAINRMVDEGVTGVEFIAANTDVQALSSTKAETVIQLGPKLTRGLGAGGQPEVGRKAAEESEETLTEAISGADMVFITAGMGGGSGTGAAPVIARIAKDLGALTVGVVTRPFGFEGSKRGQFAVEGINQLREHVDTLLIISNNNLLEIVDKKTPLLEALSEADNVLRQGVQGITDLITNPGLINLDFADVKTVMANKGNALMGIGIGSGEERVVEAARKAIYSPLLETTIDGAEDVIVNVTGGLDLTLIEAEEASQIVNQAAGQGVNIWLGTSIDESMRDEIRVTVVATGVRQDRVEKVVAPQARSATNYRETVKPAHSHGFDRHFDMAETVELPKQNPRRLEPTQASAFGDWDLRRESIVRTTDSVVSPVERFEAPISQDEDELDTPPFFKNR
Procedure: as §1, §2, §3, §4

[4] = target: E. coli (EcFtsZ) (Escherichia coli, UniProt P0A9A6); assay: Fluorescence anisotropy binding of BOFP to EcFtsZ; details: for Kd: 50 mM Tris-HCl (pH 7.6), 50 mM KCl, 0.1 µM BOFP
Procedure: as §1, §2, §3, §4

[5] = calculated at T = 310 K (37 °C) from Kd
[6] = from linear fit of ln(1/Kd) vs. 1/T

Sequence of E. coli (EcFtsZ) (P0A9A6 whole entry): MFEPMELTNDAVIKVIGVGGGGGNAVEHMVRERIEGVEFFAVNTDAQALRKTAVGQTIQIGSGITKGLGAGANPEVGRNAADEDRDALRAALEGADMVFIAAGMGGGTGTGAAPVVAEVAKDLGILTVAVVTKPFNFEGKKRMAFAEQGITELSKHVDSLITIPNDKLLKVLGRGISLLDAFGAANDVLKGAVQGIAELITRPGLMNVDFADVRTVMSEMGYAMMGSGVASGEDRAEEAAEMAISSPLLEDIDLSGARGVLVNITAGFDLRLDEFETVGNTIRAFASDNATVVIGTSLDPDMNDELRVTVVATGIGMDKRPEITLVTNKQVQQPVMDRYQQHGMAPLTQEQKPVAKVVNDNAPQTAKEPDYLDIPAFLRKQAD

## CC1=CC(C)=[N+]2C1=Cc1ccc(CCC(=O)OCC(Oc3ccc(F)c(C(N)=O)c3F)c3nc(-c4ccc(C(F)(F)F)cc4)c(Br)o3)n1[B-]2(F)F (centres unmarked) [BOFP]
[1]; 0.1 µM BOFP, 10 µM SaFtsZ, 0.1 mM GMPCPP and 10 mM MgCl2, 37 °C
  Effect of both GMPCPP and MgCl2 on anisotropy of SaFtsZ-bound BOFP: modest increase in the anisotropy
[1]; 0.1 µM BOFP, 10 µM SaFtsZ, 0.1 mM GMPCPP or 10 mM MgCl2, 37 °C
  Effect of GMPCPP alone or MgCl2 alone on anisotropy of SaFtsZ-bound BOFP: neither GMPCPP alone (at 0.1 mM) nor MgCl2 alone (at 10 mM) has a significant effect
[1]; 15 °C, 50 mM Tris-HCl (pH 7.6), 50 mM KCl, 0.1 µM BOFP, read-out: Kd - 15 °C
  Kd: 880 ± 80 nM
[1]; 25 °C, 50 mM Tris-HCl (pH 7.6), 50 mM KCl, 0.1 µM BOFP, read-out: Kd - 25 °C
  Kd: 1660 ± 120 nM
[1]; 37 °C, 50 mM Tris-HCl (pH 7.6), 50 mM KCl, 0.1 µM BOFP, read-out: Kd - 37 °C
  Kd: 3140 ± 130 nM
[1]; [5]
  ΔG: -7.8 ± 0.1 kcal/mol
[1]; [6]
  ΔH: -10.2 ± 0.3 kcal/mol
  ΔS: −7.8 ± 1.0 cal/mol•K
[1]; range over 15 to 37 °C, read-out: Kd range
  Kd: 900 to 3100 nM
[2]; 15 °C, read-out: Kd - 15 °C
  Kd: 620 ± 50 nM
[2]; 25 °C, read-out: Kd - 25 °C
  Kd: 1020 ± 90 nM
[2]; 37 °C, read-out: Kd - 37 °C
  Kd: 1310 ± 40 nM
[2]; [6]
  ΔH: -6.6 ± 0.6 kcal/mol
[3]; 15 °C, read-out: Kd - 15 °C
  Kd: 3020 ± 300 nM
[3]; 25 °C, read-out: Kd - 25 °C
  Kd: 3490 ± 250 nM
[3]; 37 °C, read-out: Kd - 37 °C
  Kd: 3810 ± 690 nM
[3]; [5]
  ΔG: -7.7 ± 0.1 kcal/mol
[3]; [6]
  ΔH: -1.9 ± 0.3 kcal/mol
[4]; 15 °C, read-out: Kd - 15 °C
  Kd: 220 ± 30 nM
[4]; 25 °C, read-out: Kd - 25 °C
  Kd: 280 ± 20 nM
[4]; 37 °C, read-out: Kd - 37 °C
  Kd: 440 ± 40 nM
[4]; [5]
  ΔG: -9.0 ± 0.1 kcal/mol
[4]; [6]
  ΔH: -5.6 ± 0.8 kcal/mol

Reference: article PMC6934700, “Structure-Guided Design of a Fluorescent Probe for the Visualization of FtsZ in Clinically Important Gram-Positive and Gram-Negative Bacterial Pathogens” (Scientific Reports, 2019)
